This test addresses T1, IKZF2 (Homo sapiens, UniProt Q96SW2+Q9UKS7).
T1 construct: CRISPR/Cas9—mediated insertion of the HiBiT peptide tag (Promega™) to the N-terminus of the IKZF2 gene locus; endogenous in cells; host or cells: MOLT4 cells, with CRISPR/Cas9 knock-in of HiBiT at the endogenous IKZF2 locus
Put plainly: HiBit-IKZF2 assay (HiBiT-Helios degradation in MOLT4 cells). The settings on record: for Dmax: MOLT-4, extent of degradation from highest to lowest concentration, 10 μM to 0.00026 μM, read-out: Dmax; for DC50: concentration at which 50% of HiBiT-Helios degradation was achieved. Format: cell-based. How it is done: The HiBiT protein tagging system was applied to MOLT4 cells via a CRISPR/Cas9—mediated insertion of the HiBiT peptide tag (Promega™) to the N-terminus of the IKZF2 gene locus (Neon™ Transfection System). The resulting HiBiT-Helios stable cell line was treated with the following compounds in triplicates following a 13-point concentration scheme ranging from 10 μM to 0.00026 μM. At the indicated timepoints, the Nano-Glo® HiBiT Lytic Detection System (Promega™) was utilized for detecting bioluminescence of the HiBiT tag in treated cells: abundance of the tag is proportionate to the level of luminescence. Following normalization to DMSO, dose-response curves were plotted (GraphPad Prism) to determine the concentration points at which 50% of HiBiT-Helios degradation was achieved by each compound. The extent of degradation (range of luminescence) from the highest to lowest concentration points was calculated to determine the Dmax.
A general note: The HiBiT peptide binds its large partner to form an active luciferase.

T1 sequence (Q9UKS7 whole entry): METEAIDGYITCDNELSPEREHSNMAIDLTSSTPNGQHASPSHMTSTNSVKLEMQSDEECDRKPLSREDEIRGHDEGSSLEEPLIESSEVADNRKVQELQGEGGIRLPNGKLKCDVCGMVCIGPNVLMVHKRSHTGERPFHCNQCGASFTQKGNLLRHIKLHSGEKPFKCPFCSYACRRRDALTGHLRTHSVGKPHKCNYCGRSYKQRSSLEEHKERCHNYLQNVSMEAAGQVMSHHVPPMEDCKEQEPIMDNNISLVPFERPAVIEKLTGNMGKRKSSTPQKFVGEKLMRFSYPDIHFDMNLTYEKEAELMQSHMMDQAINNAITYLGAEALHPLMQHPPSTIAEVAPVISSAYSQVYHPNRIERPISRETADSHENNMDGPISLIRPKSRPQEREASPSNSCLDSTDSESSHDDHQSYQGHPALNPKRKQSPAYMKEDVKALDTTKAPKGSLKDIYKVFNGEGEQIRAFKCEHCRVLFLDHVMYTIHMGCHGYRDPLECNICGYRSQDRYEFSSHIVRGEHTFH
T1 sequence (Q96SW2 whole entry): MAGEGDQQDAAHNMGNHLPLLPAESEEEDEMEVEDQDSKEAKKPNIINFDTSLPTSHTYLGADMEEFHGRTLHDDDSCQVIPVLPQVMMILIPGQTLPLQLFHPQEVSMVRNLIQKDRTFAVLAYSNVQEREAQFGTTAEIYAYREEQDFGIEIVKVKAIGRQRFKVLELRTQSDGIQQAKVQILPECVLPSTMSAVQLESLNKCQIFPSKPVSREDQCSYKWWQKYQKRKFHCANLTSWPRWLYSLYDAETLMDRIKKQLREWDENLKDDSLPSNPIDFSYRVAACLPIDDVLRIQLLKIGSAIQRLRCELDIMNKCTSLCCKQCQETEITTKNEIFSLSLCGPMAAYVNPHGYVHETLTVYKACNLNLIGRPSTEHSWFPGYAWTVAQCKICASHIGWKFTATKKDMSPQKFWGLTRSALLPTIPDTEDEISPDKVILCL
T1 sequence (Q16531 whole entry partner): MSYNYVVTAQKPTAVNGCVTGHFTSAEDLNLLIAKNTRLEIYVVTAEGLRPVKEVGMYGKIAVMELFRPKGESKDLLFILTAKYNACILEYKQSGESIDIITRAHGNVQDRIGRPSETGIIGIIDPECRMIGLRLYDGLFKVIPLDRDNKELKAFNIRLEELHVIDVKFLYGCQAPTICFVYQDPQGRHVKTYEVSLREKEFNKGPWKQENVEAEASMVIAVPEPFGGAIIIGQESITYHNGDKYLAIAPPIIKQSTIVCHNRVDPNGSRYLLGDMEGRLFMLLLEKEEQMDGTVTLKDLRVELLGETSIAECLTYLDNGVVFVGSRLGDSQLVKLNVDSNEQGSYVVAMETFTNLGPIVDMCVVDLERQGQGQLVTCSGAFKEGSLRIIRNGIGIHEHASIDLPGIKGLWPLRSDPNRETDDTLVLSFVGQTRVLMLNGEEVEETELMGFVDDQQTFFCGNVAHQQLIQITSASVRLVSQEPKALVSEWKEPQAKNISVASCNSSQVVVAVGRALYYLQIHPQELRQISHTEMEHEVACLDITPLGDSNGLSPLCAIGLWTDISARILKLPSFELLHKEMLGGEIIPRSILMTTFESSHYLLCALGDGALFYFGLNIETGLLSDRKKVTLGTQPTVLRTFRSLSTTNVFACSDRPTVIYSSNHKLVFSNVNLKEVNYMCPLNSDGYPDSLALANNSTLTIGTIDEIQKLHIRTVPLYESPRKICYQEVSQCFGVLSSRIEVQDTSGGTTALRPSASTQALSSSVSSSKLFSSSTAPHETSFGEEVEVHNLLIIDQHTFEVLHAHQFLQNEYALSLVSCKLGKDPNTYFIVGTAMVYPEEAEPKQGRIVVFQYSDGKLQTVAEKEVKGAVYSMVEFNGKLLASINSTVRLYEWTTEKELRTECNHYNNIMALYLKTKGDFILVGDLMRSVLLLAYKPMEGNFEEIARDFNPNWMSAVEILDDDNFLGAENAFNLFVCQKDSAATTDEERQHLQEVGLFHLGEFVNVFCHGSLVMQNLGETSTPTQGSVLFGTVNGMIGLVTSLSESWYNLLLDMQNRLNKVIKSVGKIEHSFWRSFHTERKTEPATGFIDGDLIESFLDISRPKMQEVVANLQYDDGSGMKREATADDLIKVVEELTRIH

In the case of `Cc1ccc(C)n1-c1ccc(CN2CCC(O)(c3ccc4c(c3)CN(C3CCC(=O)NC3=O)C4=O)CC2)cc1` (centres unmarked) [Compound 278], the Dmax was above 70% and the half-maximal degradation concentration (DC50) lay in the range of 10 to 30 nM.

Take `O=C1CCC(N2Cc3cc(C4CCN(Cc5cccc(Nc6ncc(F)cn6)c5)CC4)ccc3C2=O)C(=O)N1` (centres unmarked) [Compound 226]: the Dmax was in the range of 30 to 50% and the DC50 lay in the range of 10 to 30 nM.

For `O=C1CCC(N2Cc3cc(C4CCN(Cc5cccc(Nc6ncccc6F)c5)CC4)ccc3C2=O)C(=O)N1` (centres unmarked) [Compound 133], the maximal degradation (Dmax) was 50 to 70% and the DC50 was below 10 nM.

On to `O=C1CCC(N2Cc3cc(C4CCN(Cc5cccc(S(=O)(=O)N6CCOc7ccccc76)c5)CC4)ccc3C2=O)C(=O)N1` (centres unmarked) [Compound 84], for which the Dmax was in the range of 50 to 70% and the DC50 was 30 to 150 nM.

Take `O=C1CCC(N2Cc3cc(C4CCN(Cc5ccc6c(c5)C(=O)N(c5ncccn5)CC6)CC4)ccc3C2=O)C(=O)N1` (centres unmarked) [Compound 182]: the Dmax lay within 50 to 70% and the DC50 is 30 to 150 nM.

Take `O=C1CCC(N2Cc3cc(C4CCN(Cc5ccc6c(c5)C(=O)N(c5ccccc5)C6)CC4)ccc3C2=O)C(=O)N1` (centres unmarked) [Compound 146, 3-(1-oxo-5-(1-((3-oxo-2-phenylisoindolin-5-yl)methyl)piperidin-4-yl)isoindolin-2-yl)piperidine-2,6-dione]: the Dmax is above 70% and the DC50 lay in the range of 10 to 30 nM.

For `O=C1CCC(N2Cc3cc(C4CCN(Cc5ccc6c(c5)C(=O)N(c5ccsn5)C6)CC4)ccc3C2=O)C(=O)N1` (centres unmarked) [Compound 223], the Dmax was in the range of 50 to 70% and the 50% degradation concentration (DC50) is 10 to 30 nM.

With `O=C1CCC(N2Cc3cc(C4CCN(Cc5cccc(S(=O)(=O)N6CC7C(C6)C7(F)F)c5)CC4)ccc3C2=O)C(=O)N1` (centres unmarked) [Compound 59], the Dmax lay in the range of 50 to 70% and the 50% degradation concentration (DC50) was below 10 nM.

Turning to `O=C1CCC(N2Cc3cc(C4CCN(Cc5ccc(Nc6ccccn6)cc5)CC4)ccc3C2=O)C(=O)N1` (centres unmarked) [Compound 145], the Dmax lay in the range of 50 to 70% and the DC50 was in the range of 30 to 150 nM.

As to `O=C1CCC(N2Cc3cc(C4CCN(Cc5cccc(N6CCCCS6(=O)=O)c5)CC4)ccc3C2=O)C(=O)N1` (centres unmarked) [Compound 97], the Dmax fell in the range of 30 to 50% and the DC50 lay within 10 to 30 nM.

With `O=C1CCC(N2Cc3cc(C4CCN(Cc5cnc(Nc6ccccc6)o5)CC4)ccc3C2=O)C(=O)N1` (centres unmarked) [Compound 191], the Dmax was 50 to 70% and the DC50 was in the range of 10 to 30 nM.

`O=C1CCC(N2Cc3cc(C4CCN(Cc5cccc(S(=O)(=O)N6C7CCC6COC7)c5)CC4)ccc3C2=O)C(=O)N1` (centres unmarked) [Compound 162]: the Dmax lay within 50 to 70% and the DC50 was below 10 nM.

On to `O=C1CCC(N2Cc3cc(C4CCN(Cc5cc6c(cn5)CN(c5ccccc5)C6=O)CC4)ccc3C2=O)C(=O)N1` (centres unmarked) [Compound 173], for which the Dmax was in the range of 50 to 70% and the DC50 fell in the range of 10 to 30 nM.

Take `O=C1CCC(N2Cc3cc(C4CCN(Cc5cccc6c5C(=O)N(c5ccccc5)C6)CC4)ccc3C2=O)C(=O)N1` (centres unmarked) [Compound 121]: the maximal degradation (Dmax) fell in the range of 30 to 50% and the DC50 lay within 30 to 150 nM.

For the compound `O=C1CCC(N2Cc3cc(C4CCN(Cc5nccc(Nc6ccccc6)c5F)CC4)ccc3C2=O)C(=O)N1` (centres unmarked) [Compound 100], the Dmax lay within 50 to 70% and the 50% degradation concentration (DC50) is 10 to 30 nM.

`O=C1CCC(N2Cc3cc(C4(O)CCN(Cc5ccc(F)cc5)CC4)ccc3C2=O)C(=O)N1` (centres unmarked) [Compound 258]: the Dmax was above 70% and the DC50 is below 10 nM.

For the compound `O=C1CCC(N2Cc3cc(C4(O)CCN(Cc5c(F)cccc5F)CC4)ccc3C2=O)C(=O)N1` (centres unmarked) [Compound 245], the Dmax was in the range of 50 to 70% and the DC50 was below 10 nM.

As to `O=C1CCC(N2Cc3cc(C4CCN(Cc5cccnc5Oc5ccccc5)CC4)ccc3C2=O)C(=O)N1` (centres unmarked) [Compound 119], the maximal degradation (Dmax) lay in the range of 30 to 50% and the DC50 fell in the range of 30 to 150 nM.

Turning to `Cc1cccc(CN2CCC(O)(c3ccc4c(c3)CN(C3CCC(=O)NC3=O)C4=O)CC2)c1` (centres unmarked) [Compound 264], the Dmax is above 70% and the DC50 is below 10 nM.

As for `O=C1CCC(N2Cc3cc(C4CCN(Cc5ccnc(Nc6ccccn6)c5)CC4)ccc3C2=O)C(=O)N1` (centres unmarked) [Compound 115], the Dmax lay in the range of 50 to 70% and the DC50 is below 10 nM.

In the case of `N#Cc1ccc(CN2CCC(O)(c3ccc4c(c3)CN(C3CCC(=O)NC3=O)C4=O)CC2)cc1` (centres unmarked) [Compound 239], the Dmax was above 70% and the DC50 is below 10 nM.

As for `CC(c1ccccc1)N1CCC(O)(c2ccc3c(c2)CN(C2CCC(=O)NC2=O)C3=O)CC1` (centres unmarked) [Compound 269], the Dmax was above 70% and the DC50 was below 10 nM.

As to `O=C1CCC(N2Cc3cc(C4(O)CCN(Cc5ccccc5Oc5ccccc5)CC4)ccc3C2=O)C(=O)N1` (centres unmarked) [Compound 252], the Dmax is above 70% and the DC50 was below 10 nM.

As for `O=C1CCC(N2Cc3cc(C4(O)CCN(Cc5ccc(C6CC6)cc5)CC4)ccc3C2=O)C(=O)N1` (centres unmarked) [Compound 270], the greatest degradation seen (Dmax) was above 70% and the DC50 was below 10 nM.

In the case of `O=C1CCC(N2Cc3cc(C4CCN(Cc5ccnc(Nc6ccccc6)c5F)CC4)ccc3C2=O)C(=O)N1` (centres unmarked) [Compound 126], the Dmax was in the range of 50 to 70% and the DC50 was in the range of 10 to 30 nM.

On to `Cc1ccc(N2Cc3ccc(CN4CCC(c5ccc6c(c5)CN(C5CCC(=O)NC5=O)C6=O)CC4)cc3C2=O)cc1` (centres unmarked) [Compound 216], for which the Dmax was 50 to 70% and the DC50 is below 10 nM.

Take `O=C1CCC(N2Cc3cc(C4CCN(Cc5ccc(C(=O)Nc6ccccc6)nc5)CC4)ccc3C2=O)C(=O)N1` (centres unmarked) [Compound 141]: the Dmax lay in the range of 50 to 70% and the DC50 lay in the range of 30 to 150 nM.

Turning to `O=C1CCC(N2Cc3cc(C4CCN(Cc5ccc6c(n5)C(=O)N(c5ccccc5)C6)CC4)ccc3C2=O)C(=O)N1` (centres unmarked) [Compound 172], the Dmax is 30 to 50% and the DC50 lay in the range of 10 to 30 nM.

As for `O=C1CCC(N2Cc3cc(C4CCN(Cc5cnc(Nc6ccccc6)s5)CC4)ccc3C2=O)C(=O)N1` (centres unmarked) [Compound 148], the Dmax was in the range of 50 to 70% and the DC50 fell in the range of 10 to 30 nM.

For the compound `O=C1CCC(N2Cc3cc(C4CCN(Cc5cccc(N6Cc7ccccc7C6=O)c5)CC4)ccc3C2=O)C(=O)N1` (centres unmarked) [Compound 51], the Dmax lay in the range of 50 to 70% and the DC50 was below 10 nM.

On to `O=C1CCC(N2Cc3cc(C4(O)CCN(Cc5cccc(OCc6ccccc6)c5)CC4)ccc3C2=O)C(=O)N1` (centres unmarked) [Compound 277], for which the Dmax was above 70% and the DC50 is below 10 nM.

For `O=C1CCC(N2Cc3cc(C4(O)CCN(Cc5ccc6ncsc6c5)CC4)ccc3C2=O)C(=O)N1` (centres unmarked) [Compound 242], the maximal degradation (Dmax) is above 70% and the half-maximal degradation concentration (DC50) was below 10 nM.

As to `O=C1CCC(N2Cc3cc(C4CCN(Cc5ccc6c(c5)C(=O)N(c5ncccn5)C6)CC4)ccc3C2=O)C(=O)N1` (centres unmarked) [Compound 178], the Dmax was in the range of 30 to 50% and the DC50 lay within 10 to 30 nM.

`O=C1CCC(N2Cc3cc(C4CCN(Cc5ccc6c(c5)C(=O)N(c5ccc(F)cc5)C6)CC4)ccc3C2=O)C(=O)N1` (centres unmarked) [Compound 180]: the Dmax was in the range of 50 to 70% and the DC50 is 10 to 30 nM.

As for `O=C1CCC(N2Cc3cc(C4(O)CCN(Cc5ccc6ncccc6c5)CC4)ccc3C2=O)C(=O)N1` (centres unmarked) [Compound 279], the Dmax was above 70% and the DC50 is below 10 nM.

Take `O=C1CCC(N2Cc3cc(C4(O)CCN(Cc5ccccc5-c5ccccc5)CC4)ccc3C2=O)C(=O)N1` (centres unmarked) [Compound 274]: the Dmax lay within 50 to 70% and the 50% degradation concentration (DC50) was below 10 nM.

For the compound `O=C1CCC(N2Cc3cc(C4CCN(Cc5ccnc(C(=O)Nc6ccccc6)c5)CC4)ccc3C2=O)C(=O)N1` (centres unmarked) [Compound 131], the Dmax lay within 50 to 70% and the DC50 is 30 to 150 nM.

For `O=C1CCC(N2Cc3cc(C4(O)CCN(Cc5ccccc5OC(F)F)CC4)ccc3C2=O)C(=O)N1` (centres unmarked) [Compound 248], the Dmax is above 70% and the DC50 is below 10 nM.

On to `O=C1CCC(N2Cc3cc(C4(O)CCN(Cc5ccc(Cl)cc5)CC4)ccc3C2=O)C(=O)N1` (centres unmarked) [Compound 268], for which the greatest degradation seen (Dmax) was above 70% and the DC50 is below 10 nM.

On to `O=C1CCC(N2Cc3cc(C4CCN(Cc5cccc(N6C(=O)Cc7ccccc76)c5)CC4)ccc3C2=O)C(=O)N1` (centres unmarked) [Compound 95], for which the Dmax fell in the range of 50 to 70% and the DC50 is below 10 nM.

As for `CN(c1ccccn1)S(=O)(=O)c1ccc(CN2CCC(c3ccc4c(c3)CN(C3CCC(=O)NC3=O)C4=O)CC2)cc1` (centres unmarked) [Compound 99], the maximal degradation (Dmax) lay within 30 to 50% and the DC50 fell in the range of 30 to 150 nM.

For `O=C1CCC(N2Cc3cc(C4CCN(Cc5cccc(Nc6ncc(Cl)cn6)c5)CC4)ccc3C2=O)C(=O)N1` (centres unmarked) [Compound 227], the Dmax was 50 to 70% and the DC50 is below 10 nM.

As for `O=C1CCC(N2Cc3cc(C4(O)CCN(Cc5ccc6ccccc6c5)CC4)ccc3C2=O)C(=O)N1` (centres unmarked) [Compound 203], the Dmax was above 70% and the DC50 was below 10 nM.

`O=C1CCC(N2Cc3cc(C4(O)CCN(Cc5cccc(F)c5Cl)CC4)ccc3C2=O)C(=O)N1` (centres unmarked) [Compound 254]: the Dmax is above 70% and the DC50 is below 10 nM.

Regarding `O=C1CCC(N2Cc3cc(C4CCN(Cc5cccc6c5CN(c5ccccn5)C6=O)CC4)ccc3C2=O)C(=O)N1` (centres unmarked) [Compound 124], the Dmax was 50 to 70% and the DC50 lay within 10 to 30 nM.

For `O=C1CCC(N2Cc3cc(C4CCN(Cc5ccc6c(c5)C(=O)N(c5ccccc5F)C6)CC4)ccc3C2=O)C(=O)N1` (centres unmarked) [Compound 174], the Dmax fell in the range of 50 to 70% and the DC50 is below 10 nM.

One may read the Dmax as the greatest extent of degradation seen. Usually DC50 stands for the concentration giving 50% degradation. A high value points to a less potent degrader.

The values above are taken from patent US20230002397A1, “SMALL MOLECULE DEGRADERS OF HELIOS AND METODS OF USE” (DANA-FARBER CANCER INSTITUTE, INC., priority 2019, published 2023).
